The subject of the assay is MV-4-11 cells. The assay can be described thus: Gene expression microarray analysis (Affymetrix PrimeView) and GSEA. It is filed as cell-based, human. The arrangement: RFU PODN (11730768_x_at) / Fold change /veh PODN (11730768_x_at) / RFU LINC00158 (11744669_a_at) / Fold change /veh LINC00158 (11744669_a_at) / RFU DUSP10 (11751237_a_at) / Fold change /veh DUSP10 (11751237_a_at) / RFU ID3 (11757404_x_at) / Fold change /veh ID3 (11757404_x_at) / RFU PLEKHG5 (11737974_s_at) / Fold change /veh PLEKHG5 (11737974_s_at) / RFU LRRC4B (11730491_at) / Fold change /veh LRRC4B (11730491_at) / RFU GIMAP4 (11747438_a_at) / Fold change /veh GIMAP4 (11747438_a_at) / RFU KRT8 (11758183_x_at) / Fold change /veh KRT8 (11758183_x_at) / RFU CNN1 (11734310_a_at) / Fold change /veh CNN1 (11734310_a_at) / RFU VPS37D (11726825_at) / Fold change /veh VPS37D (11726825_at) / RFU C10orf10 (11716522_x_at) / Fold change /veh C10orf10 (11716522_x_at) / RFU KIR2DL2 /// KIR2DL4 /// KIR2DL5A /// KIR2DL5B /// KIR2DS1 /// KIR2DS2 /// KIR2DS3 /// KIR2DS4 /// KIR3DL3 /// KIR3DL3 /// KIR3DS1 (11738374_at) / Fold change /veh KIR2DL2 /// KIR2DL4 /// KIR2DL5A /// KIR2DL5B /// KIR2DS1 /// KIR2DS2 /// KIR2DS3 /// KIR2DS4 /// KIR3DL3 /// KIR3DL3 /// KIR3DS1 (11738374_at) / RFU C1QL1 (11718748_at) / Fold change /veh C1QL1 (11718748_at) / RFU TMPRSS4 (11747572_a_at) / Fold change /veh TMPRSS4 (11747572_a_at) / RFU HAMP (11756126_x_at) / Fold change /veh HAMP (11756126_x_at) / RFU RNFT2 (11725882_a_at) / Fold change /veh RNFT2 (11725882_a_at) / RFU NR4A2 (11747474_a_at) / Fold change /veh NR4A2 (11747474_a_at) / RFU ABCC12 (11746883_a_at) / Fold change /veh ABCC12 (11746883_a_at) / RFU TMEM136 (11760407_x_at) / Fold change /veh TMEM136 (11760407_x_at) / RFU CLDN22 /// WWC2 (11732394_at) / Fold change /veh CLDN22 /// WWC2 (11732394_at) / RFU HLA-DPB1 (11760878_x_at) / Fold change /veh HLA-DPB1 (11760878_x_at) / RFU SPINT1 (11716480_a_at) / Fold change /veh SPINT1 (11716480_a_at) / RFU GAP43 (11754022_s_at) / Fold change /veh GAP43 (11754022_s_at) / RFU A4GNT (11735810_at) / Fold change /veh A4GNT (11735810_at) / RFU PRB3 (11715151_x_at) / Fold change /veh PRB3 (11715151_x_at) / RFU TUBB4B (11761932_at) / Fold change /veh TUBB4B (11761932_at) / RFU CAPN14 (11732068_a_at) / Fold change /veh CAPN14 (11732068_a_at) / RFU TMCC2 (11721928_a_at) / Fold change /veh TMCC2 (11721928_a_at) / RFU IRGQ (11745062_a_at) / Fold change /veh IRGQ (11745062_a_at) / RFU FAM174B (11720279_a_at) / Fold change /veh FAM174B (11720279_a_at) / RFU TMPRSS4 (11748680_a_at) / Fold change /veh TMPRSS4 (11748680_a_at) / RFU FAM212B (11763350_a_at) / Fold change /veh FAM212B (11763350_a_at) / RFU PLEKHG5 (11743358_a_at) / Fold change /veh PLEKHG5 (11743358_a_at) / RFU ZSCAN30 (11745921_a_at) / Fold change /veh ZSCAN30 (11745921_a_at) / RFU CMKLR1 (11741424_a_at) / Fold change /veh CMKLR1 (11741424_a_at) / RFU LOC101060620 /// MAPK8IP1 (11723275_at) / Fold change /veh LOC101060620 /// MAPK8IP1 (11723275_at) / RFU SPTSSB (11747773_x_at) / Fold change /veh SPTSSB (11747773_x_at) / RFU PRSS12 (11739890_at) / Fold change /veh PRSS12 (11739890_at) / RFU BIN1 (11741810_x_at) / Fold change /veh BIN1 (11741810_x_at) / RFU WNT11 (11732464_a_at) / Fold change /veh WNT11 (11732464_a_at) / RFU C10orf10 (11716521_a_at) / Fold change /veh C10orf10 (11716521_a_at) / RFU C5orf56 (11738089_at) / Fold change /veh C5orf56 (11738089_at) / RFU CYB561 (11721691_x_at) / Fold change /veh CYB561 (11721691_x_at) / RFU ANKRD19P (11752326_a_at) / Fold change /veh ANKRD19P (11752326_a_at) / RFU OR2T12 /// OR2T33 /// OR2T8 (11738714_s_at) / Fold change /veh OR2T12 /// OR2T33 /// OR2T8 (11738714_s_at) / RFU VCAN (11748164_a_at) / Fold change /veh VCAN (11748164_a_at) / RFU JSRP1 (11732532_at) / Fold change /veh JSRP1 (11732532_at) / RFU KRTAP10-11 (11738290_x_at) / Fold change /veh KRTAP10-11 (11738290_x_at) / RFU MYO3A (11730013_a_at) / Fold change /veh MYO3A (11730013_a_at) / RFU EBF3 (11725865_a_at) / Fold change /veh EBF3 (11725865_a_at) / RFU CAMK2N1 (11719241_x_at) / Fold change /veh CAMK2N1 (11719241_x_at) / RFU C5orf56 (11738088_a_at) / Fold change /veh C5orf56 (11738088_a_at) / RFU OLFML3 (11715873_a_at) / Fold change /veh OLFML3 (11715873_a_at) / RFU LOC100653217 /// NTM (11731650_a_at) / Fold change /veh LOC100653217 /// NTM (11731650_a_at) / RFU MAPK11 (11762145_a_at) / Fold change /veh MAPK11 (11762145_a_at) / RFU FIZ1 (11724087_x_at) / Fold change /veh FIZ1 (11724087_x_at) / RFU OASL (11726364_x_at) / Fold change /veh OASL (11726364_x_at) / RFU SOX15 (11748057_x_at) / Fold change /veh SOX15 (11748057_x_at) / RFU CD79A (11719716_a_at) / Fold change /veh CD79A (11719716_a_at) / RFU HIST1H1D (11736915_at) / Fold change /veh HIST1H1D (11736915_at) / RFU CASKIN2 (11723855_a_at) / Fold change /veh CASKIN2 (11723855_a_at) / RFU LOC730098 (11760151_x_at) / Fold change /veh LOC730098 (11760151_x_at) / RFU OR4N2 (11742367_at) / Fold change /veh OR4N2 (11742367_at) / RFU PRRT2 (11749266_a_at) / Fold change /veh PRRT2 (11749266_a_at) / RFU SNX32 (11753110_a_at) / Fold change /veh SNX32 (11753110_a_at) / RFU CDHR5 (11726645_a_at) / Fold change /veh CDHR5 (11726645_a_at) / RFU RCAN1 (11760418_a_at) / Fold change /veh RCAN1 (11760418_a_at) / RFU FAM167A (11723789_a_at) / Fold change /veh FAM167A (11723789_a_at) / RFU FAM26E (11764081_at) / Fold change /veh FAM26E (11764081_at) / RFU ISYNA1 (11749810_s_at) / Fold change /veh ISYNA1 (11749810_s_at) / RFU ACY1 (11761880_at) / Fold change /veh ACY1 (11761880_at) / RFU 11764098_at / Fold change /veh 11764098_at / RFU SAMD14 (11745864_x_at) / Fold change /veh SAMD14 (11745864_x_at) / RFU NPB (11741838_a_at) / Fold change /veh NPB (11741838_a_at) / RFU TMPRSS6 (11731388_a_at) / Fold change /veh TMPRSS6 (11731388_a_at) / RFU KRTAP10-2 (11738614_at) / Fold change /veh KRTAP10-2 (11738614_at) / RFU ARHGAP8 /// PRR5-ARHGAP8 (11727945_x_at) / Fold change /veh ARHGAP8 /// PRR5-ARHGAP8 (11727945_x_at) / RFU KRTAP5-7 /// NADSYN1 (11734609_at) / Fold change /veh KRTAP5-7 /// NADSYN1 (11734609_at) / RFU RASL12 (11751679_a_at) / Fold change /veh RASL12 (11751679_a_at) / RFU CDKN2B (11736163_a_at) / Fold change /veh CDKN2B (11736163_a_at) / RFU PRF1 (11729649_at) / Fold change /veh PRF1 (11729649_at) / RFU, ZNF638 /// ZNF638-IT1 / Fold change vs veh, ZNF638 /// ZNF638-IT1 / RFU, PANK3 / Fold change vs veh, PANK3 / RFU, SH3YL1 / Fold change vs veh, SH3YL1 / RFU, ZEB2 / Fold change vs veh, ZEB2 / RFU, NRIP1 / Fold change vs veh, NRIP1 / RFU, PTTG1IP / Fold change vs veh, PTTG1IP / RFU, CAPN2 / Fold change vs veh, CAPN2 / RFU, MED14 / Fold change vs veh, MED14 / RFU, SNORA58 / Fold change vs veh, SNORA58 / RFU, C1orf63 / Fold change vs veh, C1orf63 / RFU, LRRFIP1 / Fold change vs veh, LRRFIP1 / RFU, NDUFAF7 / Fold change vs veh, NDUFAF7 / RFU, SLC12A2 / Fold change vs veh, SLC12A2 / RFU, IBTK / Fold change vs veh, IBTK / RFU, ESF1 / Fold change vs veh, ESF1 / Fold change vs veh, TMEM50B / RFU, TAOK1 / Fold change vs veh, TAOK1 / RFU, ACBD3 / Fold change vs veh, ACBD3 / RFU, TMA16 / Fold change vs veh, TMA16 / RFU, RWDD3 / Fold change vs veh, RWDD3 / RFU, BCAT1 / Fold change vs veh, BCAT1 / RFU, EDEM3 / Fold change vs veh, EDEM3 / RFU, TMEM33 / Fold change vs veh, TMEM33 / RFU, WDR75 / Fold change vs veh, WDR75 / RFU, AHCTF1 / Fold change vs veh, AHCTF1 / RFU, TFRC / Fold change vs veh, TFRC / RFU, ZDHHC17 / Fold change vs veh, ZDHHC17 / RFU, NOM1 / Fold change vs veh, NOM1 / RFU, ARL8B / Fold change vs veh, ARL8B / RFU, ZBTB11 / Fold change vs veh, ZBTB11 / RFU, TAMM41 / Fold change vs veh, TAMM41 / RFU, KIAA1704 /// LOC100996395 / Fold change vs veh, KIAA1704 /// LOC100996395 / RFU, ING1 / Fold change vs veh, ING1 / RFU, TRMT61B / Fold change vs veh, TRMT61B / RFU, FUBP3 / Fold change vs veh, FUBP3 / RFU, TP53 / Fold change vs veh, TP53 / RFU, TNKS2 / Fold change vs veh, TNKS2 / RFU, ZFP14 / Fold change vs veh, ZFP14 / RFU, ACTR2 / Fold change vs veh, ACTR2 / RFU, PPP3R1 / Fold change vs veh, PPP3R1 / RFU, PIK3R1 / Fold change vs veh, PIK3R1 / RFU, HNRNPA1 / Fold change vs veh, HNRNPA1 / RFU, RNF170 / Fold change vs veh, RNF170 / RFU, ZNF28 / Fold change vs veh, ZNF28 / RFU, RNGTT / Fold change vs veh, RNGTT / RFU, OGT / Fold change vs veh, OGT / RFU, BRD1 / Fold change vs veh, BRD1 / RFU, MARS / Fold change vs veh, MARS / RFU, ZNF655 / Fold change vs veh, ZNF655 / RFU, FAHD1 / Fold change vs veh, FAHD1 / RFU, BDP1 / Fold change vs veh, BDP1 / RFU, LRRCC1 / Fold change vs veh, LRRCC1 / RFU, ARID1A / Fold change vs veh, ARID1A / RFU, ZNF146 / Fold change vs veh, ZNF146 / RFU, ZNF330 / Fold change vs veh, ZNF330 / RFU, GPN3 / Fold change vs veh, GPN3 / RFU, C9orf123 / Fold change vs veh, C9orf123 / RFU, N4BP2L2 / Fold change vs veh, N4BP2L2 / RFU, ARFIP1 / Fold change vs veh, ARFIP1 / RFU, FAM179B / Fold change vs veh, FAM179B / RFU, BCL10 / Fold change vs veh, BCL10 / RFU, UHRF1BP1L / Fold change vs veh, UHRF1BP1L / RFU, BET1 / Fold change vs veh, BET1 / RFU, CNOT2 / Fold change vs veh, CNOT2 / RFU, ZNF268 / Fold change vs veh, ZNF268 / Fold change vs veh, ZNF507 / RFU, DGCR2 / Fold change vs veh, DGCR2 / RFU, WDSUB1 / Fold change vs veh, WDSUB1 / Fold change vs veh, HSP90B1 /// MIR3652 / RFU, ADSS / Fold change vs veh, ADSS / RFU, GK / Fold change vs veh, GK / RFU, ZNF148 / Fold change vs veh, ZNF148 / RFU, TAF9 / Fold change vs veh, TAF9 / RFU, SLC1A5 / Fold change vs veh, SLC1A5 / RFU, SLMO2 / Fold change vs veh, SLMO2 / RFU, ABCC4 / Fold change vs veh, ABCC4 / RFU, LOC101060439 /// RAP1B / Fold change vs veh, LOC101060439 /// RAP1B / RFU, RFX7 / Fold change vs veh, RFX7 / RFU, GTPBP10 / Fold change vs veh, GTPBP10 / RFU, CNEP1R1 / Fold change vs veh, CNEP1R1 / RFU, BIVM-ERCC5 /// ERCC5 / Fold change vs veh, BIVM-ERCC5 /// ERCC5 / RFU, ILF3 / Fold change vs veh, ILF3 / RFU 11762660_at / Fold change /veh 11762660_at / RFU VCAN (11757783_s_at) / Fold change /veh VCAN (11757783_s_at) / RFU DDX43 (11728927_at) / Fold change /veh DDX43 (11728927_at) / RFU KRT8 (11758188_x_at) / Fold change /veh KRT8 (11758188_x_at) / RFU NKD1 (11759106_at) / Fold change /veh NKD1 (11759106_at) / RFU SRD5A1 (11742802_a_at) / Fold change /veh SRD5A1 (11742802_a_at) / RFU TPSAB1 /// TPSB2 (11721975_s_at) / Fold change /veh TPSAB1 /// TPSB2 (11721975_s_at) / RFU GSTM3 (11746129_a_at) / Fold change /veh GSTM3 (11746129_a_at) / RFU IL23R (11737362_x_at) / Fold change /veh IL23R (11737362_x_at) / RFU TMEM51 (11727254_a_at) / Fold change /veh TMEM51 (11727254_a_at) / RFU PIWIL2 (11732686_x_at) / Fold change /veh PIWIL2 (11732686_x_at) / RFU ORM1 (11744905_x_at) / Fold change /veh ORM1 (11744905_x_at) / RFU CCDC152 (11743942_at) / Fold change /veh CCDC152 (11743942_at) / RFU ECM1 (11717891_a_at) / Fold change /veh ECM1 (11717891_a_at) / RFU IL23R (11748794_a_at) / Fold change /veh IL23R (11748794_a_at) / RFU TNFAIP8L3 (11732012_x_at) / Fold change /veh TNFAIP8L3 (11732012_x_at) / RFU MBOAT4 (11741988_at) / Fold change /veh MBOAT4 (11741988_at) / RFU 11764193_at / Fold change /veh 11764193_at / RFU TMEM53 (11763286_at) / Fold change /veh TMEM53 (11763286_at) / RFU MAGEB2 (11727129_at) / Fold change /veh MAGEB2 (11727129_at) / RFU TMEM200A (11744735_a_at) / Fold change /veh TMEM200A (11744735_a_at) / RFU CCDC152 (11751479_a_at) / Fold change /veh CCDC152 (11751479_a_at) / RFU FAM211A (11726209_a_at) / Fold change /veh FAM211A (11726209_a_at) / RFU RGS16 (11746705_a_at) / Fold change /veh RGS16 (11746705_a_at) / RFU VCAN (11755009_s_at) / Fold change /veh VCAN (11755009_s_at) / RFU RHOB (11743442_s_at) / Fold change /veh RHOB (11743442_s_at) / RFU RGS16 (11720943_a_at) / Fold change /veh RGS16 (11720943_a_at) / RFU RGS16 (11720944_at) / Fold change /veh RGS16 (11720944_at) / RFU, VPS4B / Fold change vs veh, VPS4B / RFU, CREB1 / Fold change vs veh, CREB1 / RFU, DNAJC13 / Fold change vs veh, DNAJC13 / RFU, GNAQ / Fold change vs veh, GNAQ / RFU, CDK5R1 / Fold change vs veh, CDK5R1 / RFU, ZRANB3 / Fold change vs veh, ZRANB3 / RFU, CUL4A / Fold change vs veh, CUL4A / RFU, CCNY / Fold change vs veh, CCNY / RFU, UFL1 / Fold change vs veh, UFL1 / RFU, COG3 / Fold change vs veh, COG3 / RFU, DIAPH2 / Fold change vs veh, DIAPH2 / RFU, SKA2 / Fold change vs veh, SKA2 / RFU, AFF3 / Fold change vs veh, AFF3 / RFU, LMF1 / Fold change vs veh, LMF1 / RFU, IPO11 / Fold change vs veh, IPO11 / RFU, DFFB / Fold change vs veh, DFFB / RFU, FOXP1 / Fold change vs veh, FOXP1 / RFU, CARD8 / Fold change vs veh, CARD8 / RFU, STRN3 / Fold change vs veh, STRN3 / RFU, ADK / Fold change vs veh, ADK / RFU, RASSF2 / Fold change vs veh, RASSF2 / RFU, WIPF1 / Fold change vs veh, WIPF1 / RFU, LARP1B / Fold change vs veh, LARP1B / RFU, RASA1 / Fold change vs veh, RASA1 / RFU, RB1 / Fold change vs veh, RB1 / RFU, PPFIA1 / Fold change vs veh, PPFIA1 / RFU, MAT2A / Fold change vs veh, MAT2A / RFU, CCT5 / Fold change vs veh, CCT5 / RFU, WDR92 / Fold change vs veh, WDR92 / RFU, CUX1 / Fold change vs veh, CUX1 / RFU, TTC7A / Fold change vs veh, TTC7A / RFU, TMEM135 / Fold change vs veh, TMEM135 / RFU, DEPTOR / Fold change vs veh, DEPTOR / RFU, CPM / Fold change vs veh, CPM / RFU, DNAJB6 / Fold change vs veh, DNAJB6 / RFU, CACNA2D3 / Fold change vs veh, CACNA2D3 / RFU, DTX4 / Fold change vs veh, DTX4 / RFU, TFCP2 / Fold change vs veh, TFCP2 / RFU, GMCL1 /// GMCL1P1 / Fold change vs veh, GMCL1 /// GMCL1P1 / RFU, AEBP2 / Fold change vs veh, AEBP2 / RFU, SNHG1 /// SNORD22 /// SNORD25 /// SNORD26 /// SNORD27 /// SNORD28 /// SNORD29 /// SNORD31 / Fold change vs veh, SNHG1 /// SNORD22 /// SNORD25 /// SNORD26 /// SNORD27 /// SNORD28 /// SNORD29 /// SNORD31 / Fold change (Aza/veh), C12orf56 (ProbeSet 11735607_a_at) / Fold change (ACY-1035/veh), C12orf56 (ProbeSet 11735607_a_at) / Fold change (Aza/veh), FGFR1OP (ProbeSet 11751329_s_at) / Fold change (ACY-1035/veh), FGFR1OP (ProbeSet 11751329_s_at) / Fold change (Aza/veh), VPS36 (ProbeSet 11739960_a_at) / Fold change (ACY-1035/veh), VPS36 (ProbeSet 11739960_a_at) / RFU SYPL1 (11715823_x_at) / Fold change /veh SYPL1 (11715823_x_at) / RFU IGFBP7 (11715501_s_at) / Fold change /veh IGFBP7 (11715501_s_at) / RFU REEP3 (11722064_at) / Fold change /veh REEP3 (11722064_at) / RFU IGLL1 (11728026_x_at) / Fold change /veh IGLL1 (11728026_x_at): dose or concentration left out as unconfirmed. To be noted: MV-4-11 cells, 48 hours.

On to `Nc1ncn([C@@H]2O[C@H](CO)[C@@H](O)[C@H]2O)c(=O)n1` [azacitidine], for which the “Fold change /veh VCAN (11757783_s_at)” value stood at 1.30.

Source of the values: publication PMC5218480 (PLoS ONE, 2017).
